From patent US8575167B2, “Spiro compounds having stearoyl-CoA desaturase action” (Takeda Pharmaceutical Company Limited, priority 2007, dated 2013) come the findings set out here.

This test addresses T1, SCD (Rattus norvegicus, UniProt P07308).
T1 construct: an enzyme reaction using rat liver microsome (20 μg) was performed for 15 min; from tissue; host or cells: rat liver microsome fraction
T1 sequence (P07308 1-358): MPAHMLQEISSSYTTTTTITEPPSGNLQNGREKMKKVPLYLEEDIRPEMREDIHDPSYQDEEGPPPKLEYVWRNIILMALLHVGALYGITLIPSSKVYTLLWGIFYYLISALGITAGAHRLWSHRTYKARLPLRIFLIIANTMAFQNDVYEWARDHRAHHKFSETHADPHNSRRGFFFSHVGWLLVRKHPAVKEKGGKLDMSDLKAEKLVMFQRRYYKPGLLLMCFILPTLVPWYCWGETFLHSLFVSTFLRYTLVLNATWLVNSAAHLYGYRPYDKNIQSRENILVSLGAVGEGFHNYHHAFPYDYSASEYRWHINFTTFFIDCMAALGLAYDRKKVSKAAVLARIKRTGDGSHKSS
The test can be described thus: Measurement of SCD inhibitory activity using microsome (TLC detection system). The class given is biochemical. The settings on record: rat liver microsome (20 μg), 15 min, [14C] stearoyl-CoA; test compound (10 mM) diluted to 3/1000 with 3× buffer, 10 μL in 30 μL reaction; read-out: SCD activity inhibitory rate (%). The method, then: (Test Method: Measurement of SCD Inhibitory Activity Using Microsome (TLC Detection System))
A test compound (10 mM) diluted with DMSO in advance was secondarily diluted to 3/1000 with 3× buffer (300 mmol/L NaH2PO4 [pH 7.4], 450 mM KCl, 30 mM NaF, 9 mM MgCl2, 4.5 mM glutathione [reduced form], 0.3% BSA [fatty acid free, SIGMA]). The test compound (10 μL) diluted with the assay buffer was dispensed to a PP 96-deep well block, and a microsome fraction (10 μL) diluted with a microsome buffer was added thereto. The enzyme reaction was started by the addition of 10 μL of [^14C] stearoyl-CoA (American Radiolabeled Chemicals [ARC], Inc.) diluted to 10 μCi/mL with 9 mmol/L NADH. For evaluation of the compound, an enzyme reaction using rat liver microsome (20 μg) was performed for 15 min. The reaction was quenched by the addition of 10 μL of 2.5N NaOH, a plate seal was applied, and the reaction mixture was incubated overnight in a dry heater set to 65° C. to allow saponification. Solvent extraction of fatty acid was based on the Bligh&Dyer method (1). Formic acid:methanol:chloroform (1:6:3) (200 μL) was added, the state of single layer was maintained, the mixture was sufficiently stirred, and pure water (120 μL) was added to allow separation into two layers. The lower chloroform layer (10 μL) was spotted on reversed-phase TLC plate (RP-18, 1154230001, Merck Japan, Ltd.) and developed with acetonitrile:pure water:acetic:acid (95:4.5:0.5). The TLC plate was dried and transferred onto an Imaging Plate (Fuji Photo Film Co., Ltd.) for not less than 5 hr. For detection, BAS-5000 (Fuji Photo Film Co., Ltd) was used and the obtained spot images were converted to numerical values using Multi Gauge Ver2.3 (Fuji Photo Film Co., Ltd), based on which the SCD activity inhibitory rate (%) was determined.
Turning to `Cc1nsc(-c2ccc(N3CCC4(C=Cc5ccccc54)CC3)nn2)n1` [Example 2, 1′-[6-(3-methyl-1,2,4-thiadiazol-5-yl)pyridazin-3-yl]spiro[indene-1,4′-piperidine]], the inhibition at 10 µM worked out at 99%. For `Cc1nsc(-c2ccc(N3CCC4(CC3)Cc3ccccc3O4)nn2)n1` [Example 4, 1′-[6-(3-methyl-1,2,4-thiadiazol-5-yl)pyridazin-3-yl]-3H-spiro[1-benzofuran-2,4′-piperidine]], the inhibition at 10 µM was 97%.

As to `Cc1nsc(-c2ccc(N3CCC4(CC3)CC(=O)c3ccccc3O4)nn2)n1` [Example 5, 1′-[6-(3-methyl-1,2,4-thiadiazol-5-yl)pyridazin-3-yl]spiro[chromene-2,4′-piperidin]-4(3H)-one], the inhibition at 10 µM stood at 100%. To `Cc1nsc(-c2ccc(N3CCC4(CC3)NC(=O)c3ccccc3N4)nn2)n1` [Example 6, 1-[6-(3-methyl-1,2,4-thiadiazol-5-yl)pyridazin-3-yl]-1′H-spiro[piperidine-4,2′-quinazolin]-4′(3′H)-one] belongs 95%; to `C1=CC2(CCN(c3ccc(-c4ncns4)nn3)CC2)c2ccccc21` [Example 11, 1′-[6-(1,2,4-thiadiazol-5-yl)pyridazin-3-yl]spiro[indene-1,4′-piperidine]], 93%.

Take `Cc1nsc(-c2ccc(N3CCC4(CC3)COc3ccccc34)nn2)n1` [Example 17, 1′-[6-(3-methyl-1,2,4-thiadiazol-5-yl)pyridazin-3-yl]spiro[1-benzofuran-3,4′-piperidine]]: the inhibition at 10 µM was determined as 100%. To `Cc1nsc(-c2ccc(N3CCC4(C=Cc5ccccc5O4)CC3)nn2)n1` [Example 20, 1′-[6-(3-methyl-1,2,4-thiadiazol-5-yl)pyridazin-3-yl]spiro[chromene-2,4′-piperidine]] belongs 98%. To `Cc1nsc(-c2ccc(N3CCC4(CC3)CN(c3cccc(F)c3)C(=O)O4)nn2)n1` [Example 29, 3-(3-fluorophenyl)-8-[6-(3-methyl-1,2,4-thiadiazol-5-yl)pyridazin-3-yl]-1-oxa-3,8-diazaspiro[4.5]decan-2-one] belongs 99%; to `Cc1nsc(-c2ccc(N3CCC4(CC3)NC(=O)c3ccccc3O4)nn2)n1` [Example 31, 1′-[6-(3-methyl-1,2,4-thiadiazol-5-yl)pyridazin-3-yl]spiro[1,3-benzoxazine-2,4′-piperidin]-4(3H)-one], 92%; to `Cc1nsc(-c2ccc(N3CCC4(CC3)CN(c3ccccc3)C(=O)CO4)nn2)n1` [Example 32, 9-[6-(3-methyl-1,2,4-thiadiazol-5-yl)pyridazin-3-yl]-4-phenyl-1-oxa-4,9-diazaspiro[5.5]undecan-3-one], 94%. In the case of `Cc1noc(-c2ccc(N3CCC4(C3)OCc3ccccc34)nn2)n1` (centres unmarked) [Example 43, 1′-[6-(3-methyl-1,2,4-oxadiazol-5-yl)pyridazin-3-yl]-3H-spiro[2-benzofuran-1,3′-pyrrolidine]] it was 100%; in that of `Cc1noc(-c2ccc(N3CCC4(CC3)CN(c3ccc(F)cc3)C(=O)O4)nn2)n1` [Example 47, 3-(4-fluorophenyl)-8-[6-(3-methyl-1,2,4-oxadiazol-5-yl)pyridazin-3-yl]-1-oxa-3,8-diazaspiro[4.5]decan-2-one], 93%; in that of `Cc1nsc(-c2ccc(N3CCC4(COc5ccccc54)C3)nn2)n1` (centres unmarked) [Example 50, 1′-[6-(3-methyl-1,2,4-thiadiazol-5-yl)pyridazin-3-yl]spiro[1-benzofuran-3,3′-pyrrolidine]], 99%. `Cc1noc(-c2ccc(N3CCC4(COc5ccccc54)C3)nn2)n1` (centres unmarked) [Example 51, 1′-[6-(3-methyl-1,2,4-oxadiazol-5-yl)pyridazin-3-yl]spiro[1-benzofuran-3,3′-pyrrolidine]]: the inhibition at 10 µM turned out to be 97%. Turning to `O=C(CNC(=O)c1ccc(N2CCC3(C=Cc4ccccc43)CC2)nn1)c1ccccc1` [Example 55, N-(2-oxo-2-phenylethyl)-6-(1′H-spiro[indene-1,4′-piperidin]-1′-yl)pyridazine-3-carboxamide], the inhibition at 10 µM amounted to 99%. To `O=C(NCC(O)c1ccccc1)c1ccc(N2CCC3(C=Cc4ccccc43)CC2)nn1` (centres unmarked) [Example 60, N-(2-hydroxy-2-phenylethyl)-6-(1′H-spiro[indene-1,4′-piperidin]-1′-yl)pyridazine-3-carboxamide] belongs 98%; to `O=C(NCCc1cccnc1)c1ccc(N2CCC3(C=Cc4ccccc43)CC2)nn1` [Example 74, N-(2-(pyridin-3-yl)ethyl)-6-(1′H-spiro[indene-1,4′-piperidin]-1′-yl)pyridazine-3-carboxamide], 98%. To `O=C(NCC(O)Cc1ccccc1)c1ccc(N2CCC3(C=Cc4ccccc43)CC2)nn1` (centres unmarked) [Example 86, N-(2-hydroxy-3-phenylpropyl)-6-(1′H-spiro[indene-1,4′-piperidin]-1′-yl)pyridazine-3-carboxamide] belongs 100%.

Turning to `O=C(N[C@H]1C[C@@H]1c1ccccc1)c1ccc(N2CCC3(C=Cc4ccccc43)CC2)nn1` [Example 126, N-[(1S,2R)-2-phenylcyclopropyl]-6-(1′H-spiro[indene-1,4′-piperidin]-1′-yl)pyridazine-3-carboxamide], the inhibition at 10 µM was determined as 98%. To `OCc1noc(-c2ccc(N3CCC4(CC3)COc3ccccc34)nn2)n1` [Example 143, {5-[6-(1′H-spiro[1-benzofuran-3,4′-piperidin]-1′-yl)pyridazin-3-yl]-1,2,4-oxadiazol-3-yl}methanol] belongs 100%; to `CC1CSC(c2ccc(N3CCC4(CC3)COc3ccccc34)nn2)=N1` (centres unmarked) [Example 146, 1′-[6-(4-methyl-4,5-dihydro-1,3-thiazol-2-yl)pyridazin-3-yl]spiro[1-benzofuran-3,4′-piperidine]], 97%; to `OCc1nc(-c2ccc(N3CCC4(CC3)COc3ccccc34)nn2)no1` [Example 148, {3-[6-(1′H-spiro[1-benzofuran-3,4′-piperidin]-1′-yl)pyridazin-3-yl]-1,2,4-oxadiazol-5-yl}methanol], 100%. To `Cc1nc(-c2ccc(N3CCC4(C3)OCc3ccccc34)nn2)no1` (centres unmarked) [Example 150, 1′-[6-(5-methyl-1,2,4-oxadiazol-3-yl)pyridazin-3-yl]-3H-spiro[2-benzofuran-1,3′-pyrrolidine]] belongs 99%; to `OCc1noc(-c2ccc(N3CCC4(C3)OCc3ccccc34)nn2)n1` (centres unmarked) [Example 156, {5-[6-(1′H,3H-spiro[2-benzofuran-1,3′-pyrrolidin]-1′-yl)pyridazin-3-yl]-1,2,4-oxadiazol-3-yl}methanol], 100%; to `OCc1noc(-c2ccc(N3CCC4(COc5ccccc54)C3)nn2)n1` (centres unmarked) [Example 157, {5-[6-(1′H-spiro[1-benzofuran-3,3′-pyrrolidin]-1′-yl)pyridazin-3-yl]-1,2,4-oxadiazol-3-yl}methanol], 100%. Regarding `Cc1noc(-c2ccc(N3CCC4(C3)C(=O)N(C)c3ccccc34)nn2)n1` (centres unmarked) [Example 159, 1-methyl-1′-[6-(3-methyl-1,2,4-oxadiazol-5-yl)pyridazin-3-yl]spiro[indole-3,3′-pyrrolidin]-2(1H)-one], the inhibition at 10 µM amounted to 99%.
